# Experimental data reported in US12576115B2, “Bacterial compositions for treating and preventing halitosis” (Imvela Corp., priority 2023, dated 2026).
# Legend:
# [1] = pH reduction of an environment by bacterial strain (Table 1, (b)); conditions: capable of reducing the pH of an environment from 7.5 or higher to less than 7.5
# From the text: (§1) Exemplary bacterial strains determined to be capable of (b) reducing the pH of an environment from 7.5 or higher to less than 7.5; (c) reducing the abundance of one or more VSCs in an environment having a pH of less than 7.5; and/or (d) enhances the reduction of one or more VSCs by another bacterial strain in an environment with a pH of 7.5 or higher, are listed below in Table 1.
# [2] = test system: volatile sulfur compounds (VSCs); experiment: VSC reduction in an environment having a pH of less than 7.5 (Table 1, (c)); conditions: capable of reducing the abundance of one or more VSCs in an environment having a pH of less than 7.5
# From the text: as §1
# Some bacterial strains of compositions, nutritional supplements, dental supplements, and food products were identified based on the ability to reduce the abundance of volatile sulfur compounds (VSCs) in an environment, and/or inhibit the production of VSCs by other microorganisms in the environment. VSCs are associated with the unpleasant odor of breath of subjects with halitosis, and reduction in VSC abundance (e.g., by VSC metabolism or inhibition of VSC production) is expected to alleviate this symptom of halitosis. Non-limiting examples of such VSCs include hydrogen sulfide, methyl mercaptan, and dimethyl sulfide, all of which give off strong and unpleasant odors.
substance,measurement,setting,value
Bifidobacterium longum,(b) pH reduction,[1],Yes
Lactobacillus acidophilus,(b) pH reduction,[1],Yes
same,(c) VSC reduction,[2],Yes
Pediococcus acidilactici,(b) pH reduction,[1],Yes
same,(c) VSC reduction,[2],Yes
